Test results taken from US20250034216A1, “STEREOSELECTIVE COVALENT LIGANDS FOR ONCOGENIC AND IMMUNOLOGICAL PROTEINS” (The Scripps Research Institute, priority 2021, published 2025).

Assays:
[1] = tested on: DDX39A_C86; experiment: IA-DTB cysteine engagement; assay type: binding, human; settings: 22Rv1 cells, 20 μM probe, 1 h, relative to DMSO
Procedure: Sample preparation: Cells (adherent: 15 cm dishes, suspension: 2 million cells/mL) were treated with electrophilic probes in situ for indicated times and concentrations, washed with ice-cold PBS, and flash frozen in liquid nitrogen. Cell pellets were lysed by sonication (8 pulses, 40% power) in 500 μL ice-cold PBS supplemented with cOmplete protease inhibitors (1 tablet/10 mL of PBS). Whole cell lysates protein content was measured using a standard DC protein assay (Bio-Rad) and 500 μL (2 mg/mL protein content) were treated with 5 μL of 10 mM 1A-DTB (in DMSO) for 1 h at ambient temperature with occasional vortexing. Samples were methanol-chloroform precipitated with the addition of 500 μL ice-cold MeOH and 200 μL CHCl3, vortexed, and centrifuged (10 min, 10,000 g). Without disrupting the protein disk, both top and bottom layers were aspirated and the protein disk was washed with 1 mL ice-cold MeOH and centrifuged (10 min, 10,000 g). The pellets were allowed to air dry, and then re-suspended in 90 μL buffer (9 M urea, 10 mM DTT, 50 mM TEAB pH 8.5). Samples were reduced by heating at 65 C for 20 minutes and water bath sonicated as needed to resuspend the protein pellets, followed by alkylation via addition of 10 μL (500 mM) iodoacetamide and incubated at 37 C for 30 min with shaking. Samples were briefly centrifuged, and probe sonicated once more to ensure complete resuspension, and then diluted with 300 μL buffer (50 mM TEAB pH 8.5) to reach final concentration of 2 M urea. Trypsin (4 μL of 0.25 μg/μL in trypsin resuspension buffer with 25 mM CaCl2)) was added to each sample and digested at 37 C for 2 h to overnight. Digested samples were then diluted with 300 μL wash buffer (50 mM TEAB pH 8.5, 150 mM NaCl, 0.2% NP-40) containing streptavidin-agarose beads (50 μL of 50% slurry in wash buffer) and were rotated at room temperature for 2 hours. Enriched samples were pelleted by centrifugation (2000 g, 2 min) and transferred to BioSpin columns and washed (3×1 mL wash buffer, 3×1 mL PBS, 3×1 mL water). Enriched peptides were eluted by 300 μL 50% acetonitrile with 0.1% formic acid and eluate was evaporated to dryness via speedvac. IA-DTB labeled and enriched peptides were resuspended in 100 μL EPPS buffer (200 mM, pH 8.0) with 30% acetonitrile, vortexed, and water bath sonicated. Samples were TMT labeled with 3 μL of corresponding TMT tag (5 mg tag resuspended in 256 μL acetonitrile), vortexed, and incubated at room temperature for 1 hour. […]
Data processing: Cysteine engagement ratios (probe vs DMSO) were calculated for each peptide-spectra match by dividing each TMT reporter ion intensity by the average intensity for the channels corresponding to DMSO treatment. […]

[2] = biological target: PSME1 and PSME2 (PA28 complex) (Homo sapiens, UniProt Q06323); experiment: SEC-MS elution profile; assay type: cell-based; set-up: endogenous in cells; host or cells: 22Rv1; settings: 22Rv1 cells, 20 μM, 3 h
Sequence of PSME1 and PSME2 (PA28 complex) (Q06323 whole entry, the tested form may be a part, one chain of several): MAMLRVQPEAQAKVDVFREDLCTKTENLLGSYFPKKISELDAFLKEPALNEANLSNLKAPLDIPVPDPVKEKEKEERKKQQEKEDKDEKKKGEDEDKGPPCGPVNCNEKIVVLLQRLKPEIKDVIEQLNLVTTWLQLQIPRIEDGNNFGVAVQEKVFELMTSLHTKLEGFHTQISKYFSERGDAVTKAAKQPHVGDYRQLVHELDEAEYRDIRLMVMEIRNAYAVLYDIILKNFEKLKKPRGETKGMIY
Procedure: Sample preparation: Cells (adherent: 15 cm dishes, suspension: 2 million cells/mL) were treated with electrophilic probes in situ for indicated times and concentrations (elaborated fragments: 20 μM, 3 h), washed with ice-cold PBS, and flash frozen in liquid nitrogen. Cell pellets were lysed by sonication (8 pulses, 40% power) in 600 μL ice-cold PBS supplemented with cOmplete protease inhibitors (1 tablet/10 mL of PBS), ultracentrifuged for 20 min at 100,000 g, then normalized to a standardized concentration (typically 1.5 to 2.5 mg/mL). Clarified lysate was injected into a Superdex 200 Increase 10/300 GL column attached to an AKTA pure FPLC system. Proteins were fractionated using an isocratic gradient (PBS) running at 0.5 mL/min into 5 fractions 2 mL wide, beginning at 8 mL and ending at 18 mL. Eluate was collected into 15 mL tubes containing 12 mL of acetone at 4C. After completion of one set of 5 fractions, the above protocol was repeated a second time for the remaining 5 fractions. Proteins were precipitated overnight at −20 C, then spun at 4500 g for 20 minutes, yielding a white protein pellet. Acetone/PBS mixture was decanted off the pellets, which were dried at room temperature and then resuspended in 125 μL of 8 M urea, 10 mM DTT in 100 mM EPPS for 15 minutes at 65 degrees, followed by probe sonication to complete resuspension. 6.25 μL of 500 mM iodoacetamide was added to samples for alkylation (30 minutes, 37 C), followed by dilution with 370 μL of 100 mM EPPS, and addition of 2 μg trypsin per fraction, and digestion overnight at 37 C. 70 μL of tryptic digest was aliquoted into a clean microcentrifuge tube, followed by 30 μL of dry acetonitrile and 4.5 μL (5 mg/256 μL) of TMT tag in dry acetonitrile. Samples were labeled at room temperature for 75 minutes, then quenched with 6 μL of 5% hydroxylamine for 15 minutes and acidified with 5 μL of formic acid. The set of 10 samples were then combined into a single tube and evaporated by speed vac. Samples were then desalted and fractionated before analysis by mass spectrometry.
Data processing: Fractional distributions for each peptide-spectra match with a total TMT reporter ion intensity were calculated by dividing the reporter ion intensity for each TMT channel by the summed intensity across the 5 TMT channels corresponding to a single treatment condition (Equation 1). Protein-level SEC elution profiles were then generated by averaging together all unique peptides with a summed reporter ion intensity >5,000. Two unique peptide sequences were required per-protein. Bar graph elution profiles are represented as the mean±standard error of the mean across all replicates. Euclidean distances (SE shift scores, Equation 2) were calculated using the average elution profile for each protein across replicates, combined by treatment condition and cell line. Figures reporting mean elution times used Equation 3 for calculation.
Filtering of SEC-MS data: Replicates were combined based on cell line and treatment condition (probe, concentration, duration) by averaging SEC elution profiles for each protein across all experiments. A coefficient of variation (CV) filter was applied by taking the average the per-fraction CV across all 5 fractions. Proteins with a CV≥0.7 were removed from analysis.

[3] = biological target: T1, DDX49_258 (Homo sapiens, UniProt Q9Y6V7); experiment: IA-DTB cysteine engagement; assay type: binding; settings: 22Rv1 cells, 5 μM probe, 1 h (FIG. 5B), relative to DMSO
T1 construct: endogenous in cells; host or cells: 22Rv1
T1 sequence (Q9Y6V7 whole entry): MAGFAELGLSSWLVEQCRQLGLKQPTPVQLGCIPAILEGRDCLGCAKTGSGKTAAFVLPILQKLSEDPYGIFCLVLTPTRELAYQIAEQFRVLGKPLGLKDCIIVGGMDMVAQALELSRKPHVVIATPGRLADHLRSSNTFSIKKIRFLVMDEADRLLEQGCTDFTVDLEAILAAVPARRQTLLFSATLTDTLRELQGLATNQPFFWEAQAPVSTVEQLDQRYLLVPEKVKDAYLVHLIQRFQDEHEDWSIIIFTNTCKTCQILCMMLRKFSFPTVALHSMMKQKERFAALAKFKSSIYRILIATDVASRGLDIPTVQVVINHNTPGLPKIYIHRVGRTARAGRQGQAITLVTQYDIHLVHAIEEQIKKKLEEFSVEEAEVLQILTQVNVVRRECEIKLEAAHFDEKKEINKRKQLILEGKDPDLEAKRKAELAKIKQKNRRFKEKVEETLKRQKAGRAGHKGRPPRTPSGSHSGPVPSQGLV
Procedure, shortened: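 Probe-exposed cells were lysed, IA-DTB-labeled, trypsinized and streptavidin-enriched. Multiplexed TMT quantitation gave engagement ratios versus DMSO, with non-tryptic peptides excluded and intensities normalized to median summed signal.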

Structure (SMILES): C=CC(=O)N1C[C@@H](c2ccc(Br)cc2)[C@H]1C(=O)Nc1cccc2cccnc12 [MY-1A, (2S,3R)-1-acryloyl-3-(4-bromophenyl)-N-(quinolin-8-yl)azetidine-2-carboxamide]
- % engagement DDX39A_C86 [1]: 44.5%
- SEC migration shift of PSME1 and PSME2 [2]: None of the other azetidine acrylamide stereoisomers

Structure (SMILES): C=CC(=O)N1C[C@H](c2ccc(Br)cc2)[C@@H]1C(=O)Nc1cccc2cccnc12 [MY-1B, (2R,3S)-1-acryloyl-3-(4-bromophenyl)-N-(quinolin-8-yl)azetidine-2-carboxamide]
- % engagement DDX49_258 [3]: 5.50%
- % engagement DDX39A_C86 [1]: 37%
- SEC migration shift of PSME1 and PSME2 [2]: decreased size shift

Structure (SMILES): C=CC(=O)N1C[C@H](c2ccc(Br)cc2)[C@H]1C(=O)Nc1cccc2cccnc12 [MY-3A, (2S,3S)-1-acryloyl-3-(4-bromophenyl)-N-(quinolin-8-yl)azetidine-2-carboxamide]
- % engagement DDX39A_C86 [1]: 23.5%
- SEC migration shift of PSME1 and PSME2 [2]: None of the other azetidine acrylamide stereoisomers

Structure (SMILES): C=CC(=O)N1C[C@H](c2ccc(Br)cc2)[C@H]1C(=O)Nc1cccc2cccnc12 [MY-3B, (2S,3S)-1-acryloyl-3-(4-bromophenyl)-N-(quinolin-8-yl)azetidine-2-carboxamide]
- % engagement DDX39A_C86 [1]: 67.5%
- SEC migration shift of PSME1 and PSME2 [2]: None of the other azetidine acrylamide stereoisomers

Structure (SMILES): CC#CC(=O)N1C[C@H](c2ccc(Br)cc2)[C@@H]1C(=O)Nc1cccc2cccnc12 [MY-45B, (2R,3S)-3-(4-bromophenyl)-1-(but-2-ynoyl)-N-(quinolin-8-yl)azetidine-2-carboxamide]
- % engagement DDX49_258 [3]: 82.25%
- SEC migration shift of PSME1 and PSME2 [2]: caused the expected SEC migration shifts
